Measurements taken from patent US6482610B1, “Method for producing agents for treating tumor diseases and for immunosuppression” (Forschungszentrum Karlsruhe GmbH, priority 1998, dated 2002).
Read-outs that look alike come from different tables or passages of the source.

Columns and labels:
Kip1 mRNA = Kip1 mRNA by Northern blot in 5 L cells; type: cell-based, rat
p18-Ink and p21-Cip1 = assay: Levels of other cdk inhibitors in 5 L cells; type: cell-based, rat
Experimental: After it had been found by introductory experiments that the effect of dioxin on the cell cycle required gene expression which was continuous and induced, experiments were carried out to investigate the Ah receptor-dependent, cell cycle-regulating genes by characterizing biochemical changes in the course of the cell cycle (Lees, E., Curr. Opin. Cell Biol. 7, 773 (1995); Morgan, D. O., Nature 374, 131 (1995). The levels of cyclins D and E, which are involved in the G1-S transition in the cell cycle, as well as their associated cyclin-dependent kinases (cdks 2 and 4), were not reduced by dioxin treatment (see FIG. 2A). The levels of cyclins D2 and D3 were even raised, presumably because the cells are frozen in a state which is per se associated with a high level of these cyclins. […] The expected accumulation of a slowly migrating form of cdk2, which is presumably not phosphorylated at Thr-160 (Polyak, loc. cit.), was found in the same precipitates (FIG. 2D). […] The rise in the level of the p27Kip1 protein was accompanied by a fourfold induction of Kip1 mRNA (FIG. 2E, lanes 1 and 2).

5 L cells [1] = assay: Cell cycle distribution by flow cytometry in transfected 5 L cells; type: cell-based, rat
Description: Genetic indications of a causal role for Kip1 induction in dioxin-induced cell cycle retardation were obtained by transiently expressing a Kip1 antisense RNA in order to inactivate Kip1. Coexpression of green fluorescent protein (GFP, Heim, A. B. et al., Nature 373, 663 (1997)) enabled flow cytometry to be used to detect efficiently transfected cells (FIG. 3A). […] When Kip1 antisense RNA was expressed together with GFP, the TCDD effect on cell cycle distribution was interrupted in the efficiently transfected subpopulation of cells (FIG. 3B, third row). In the non-transfected subpopulation from the same cell culture, TCDD retarded the progress of the cell cycle in the expected manner (FIG. 3B, last row). In this context, it is to be noted that the electroporation reduced sensitivity to dioxin such that the observed effects on the cell cycle were less pronounced than in non-transfected cells, for example 1.5-2-fold as compared with 3-4-fold in non-electroporated cells (Weiss, loc. cit.).
5 L cells were transiently cotransfected with expression vectors for a Kip1 antisence RNA and GFP (part B, lower panel) or with the empty expression vector and GFP (part B, upper panel). 32 h after the transfection, the cells were treated with 1 nM TCDD or 0.1% DMSO solvent, as the control, and harvested, for the analysis by flow cytometry 18 h later, using trypsin. (A) The GFP-expressing subpopulation of transfected cells (thick line) was identified by means of a high green fluorescence (GFP) as compared with untransfected cells (thin line). (B) Cell cycle profiles were determined by staining with H33258 and analysed individually for efficiently transfected (approx. 5%), green-fluorescing subpopulations (rows 1 and 3) and untransfected subpopulations (rows 2 and 4) in the presence of 1 nM TCDD (right-hand panels) or 0.1% DMSO solvent (left-hand panels).

p27Kip1 [2] = assay: p27Kip1 protein level by Western blot in 5 L cells and BP8 derivatives; type: cell-based, rat
Experimental: After it had been found by introductory experiments that the effect of dioxin on the cell cycle required gene expression which was continuous and induced, experiments were carried out to investigate the Ah receptor-dependent, cell cycle-regulating genes by characterizing biochemical changes in the course of the cell cycle (Lees, E., Curr. Opin. Cell Biol. 7, 773 (1995); Morgan, D. O., Nature 374, 131 (1995). The levels of cyclins D and E, which are involved in the G1-S transition in the cell cycle, as well as their associated cyclin-dependent kinases (cdks 2 and 4), were not reduced by dioxin treatment (see FIG. 2A). The levels of cyclins D2 and D3 were even raised, presumably because the cells are frozen in a state which is per se associated with a high level of these cyclins. […] The expected accumulation of a slowly migrating form of cdk2, which is presumably not phosphorylated at Thr-160 (Polyak, loc. cit.), was found in the same precipitates (FIG. 2D). […]
(§1) Biochemical properties of G1-phase cyclin/cdk complexes were analysed using 30-60%-confluent, asynchronous cell cultures which, apart from those in section E, had been subjected to a 24-hour treatment with TCDD or 0.1% of the DMSO solvent. The quantities of G1-phase cyclins D1, D2, D3 and E, and also cdks 2 and 4(A) were determined by Western blot in extracts which had been prepared by lysis using a mild detergent (Matsushime, H. et al. Mol. Cell Biol. 14, 2066 (1994)). Cyclin E-dependent histone H1 kinase activity (B) was measured in an immune complex kinase assay (Matsushime, loc. cit.) following precipitation with an anti-cyclin E antibody (lanes 1 and 2) or a corresponding anti-AP-2 antibody as the negative control (lanes 3 and 4). The levels of p27Kip1 protein (C) were determined by Western blot in whole-cell extracts prepared from TCDD-treated cultures of AhR-expressing 5 L wild-type cells, their AhR-deficient BP8AhR-derivatives and BP8 cells which were expressing AhR ectopically (BP8AhR+) (Weiss, loc. cit.). […]

[3] = system: cyclins D1, D2, D3 and E, cdks 2 and 4; assay: Western blot of G1-phase cyclins and cdks in 5 L cells; type: cell-based, rat; conditions: 24-hour treatment, FIG. 2A
Experimental: (§2) After it had been found by introductory experiments that the effect of dioxin on the cell cycle required gene expression which was continuous and induced, experiments were carried out to investigate the Ah receptor-dependent, cell cycle-regulating genes by characterizing biochemical changes in the course of the cell cycle (Lees, E., Curr. Opin. Cell Biol. 7, 773 (1995); Morgan, D. O., Nature 374, 131 (1995). The levels of cyclins D and E, which are involved in the G1-S transition in the cell cycle, as well as their associated cyclin-dependent kinases (cdks 2 and 4), were not reduced by dioxin treatment (see FIG. 2A). […]
as §1, with “4).” for “4). The levels of p27Kip1 protein (C) were determined by Western blot in whole-cell extracts prepared from TCDD-treated cultures of AhR-expressing 5 L wild-type cells, their AhR-deficient BP8AhR-derivatives and BP8 cells which were expressing AhR ectopically (BP8AhR+) (Weiss, loc. cit.).”

thymocytes = assay: Thymocyte proliferation and cell cycle distribution in foetal thymus organ culture; type: cell-based, mice; conditions: for % in G2/S: 2 days of culture, mean ± S.D., 3 experiments
Description: (§3) An important target for dioxin toxicity is the thymus, which suffers an AhR-dependent atrophy (Poland, A. et al., Annu. Rev. Pharmacol. Toxicol. 22, 517 (1982); Fernandez-Salguero, P. et al., Science 268, 722 (1995)). Foetal thymus organ culture (FTOC) provides a useful model for studying dioxin activities (Lai, Z. W. et al., Mol. Pharmacol. 52, 30 (1997), and the literature references which are cited therein). After only 2 days of FTOC, a 3-fold induction of Kip1 protein was found in thymocytes which had been prepared from TCDD-treated cultures as compared with cultures which had only been exposed to the solvent (FIG. 4A). This was accompanied by a decrease in the proliferation of the thymocytes, as shown by a reduced incorporation of ^3H-thymidine into the thymocyte DNA (75±7%) and a drop, from 32±3% down to 24±1%, in the number of cells in the S and G2 phases of the cell cycle (a representative example from 3 similar experiments is shown in FIG. 4B). While the proliferation rate in all the early thymocyte subpopulations was reduced independently of the status of CD4 or CD8 expression (Table 1), the effect was more strongly pronounced in the predominantly immature, double negative subpopulation and in a small CD4low/+/CD8-subpopulation.
(§4) Foetal thymus glands from C57B16 mice were explanted after 14.5 days of pregnancy and cultured for 2 days in the presence of 1 nM TCDD or 0.1% DMSO solvent prior to preparing thymocytes. p27Kip1 protein (A) was determined by Western blot in 10^5 thymocytes. Uniform loading of the gel was ensured by probing the blots once again with an Erk1 antibody (one of three representative examples is shown). The cell cycle distribution of the total lymphocyte population (B) was determined by means of flow cytometry following DNA staining with H33258 bisbenzimide dye.
Thymocytes from foetal thymus glands were collected after 2 days of culture in the presence or absence of TCDD and analysed for their cell cycle distribution. The values are mean values±S.D. from 3 independent experiments.

5 L cells [4] = conditions: non-electroporated cells (Weiss, loc. cit.); cited from earlier work
[5] = system: cyclin E-associated histone H1 kinase; assay: Cyclin E-dependent histone H1 kinase activity, immune complex kinase assay; type: cell-based, rat; conditions: 5 L cells, 24-hour treatment, FIG. 2B
Experimental: as §2
as §1, with “4).” for “4). The levels of p27Kip1 protein (C) were determined by Western blot in whole-cell extracts prepared from TCDD-treated cultures of AhR-expressing 5 L wild-type cells, their AhR-deficient BP8AhR-derivatives and BP8 cells which were expressing AhR ectopically (BP8AhR+) (Weiss, loc. cit.).”

5 L cells [6] = assay: Cell cycle progress by Rb protein phosphorylation, Western blot, synchronised 5 L cells; type: cell-based, rat; conditions: 1 nM, 2 h before analysis, 8 h after serum stimulation, FIG. 1
Experimental: 5 L cells were frozen in their growth by being fasted in serum-free medium for 24 h and synchronously released from the block in the cell cycle by the addition of serum. The progress in the cell cycle was monitored by Western blot analysis, by determining the accumulation of phosphorylated Rb protein (upper arrow) in relation to hypophosphorylated Rb protein (lower arrow) 8 h after stimulating with the serum. 2 h before the analysis, the cells were treated with 1 nM TCDD, the transcription inhibitor actinomycin D (5 μg/ml) or both these compounds. The culture conditions have been described previously (Weiss, C. et al. Exp. Cell Res. 226, 154 (1996)), and extracts were prepared by lysing the cells in denaturing SDS sample buffer.

p27Kip1 [7] = assay: p27Kip1 protein by Western blot in foetal thymus organ culture thymocytes; type: cell-based, mice; conditions: 2 days of FTOC, 1 nM, compared with solvent cultures
Description: as §3, with “While the proliferation rate in all the early thymocyte subpopulations was reduced independently of the status of CD4 or CD8 expression (Table 1), the effect was more strongly pronounced in the predominantly immature, double negative subpopulation and in a small CD4low/+/CD8-subpopulation.” left out
as §4, with “Uniform loading of the gel was ensured by probing the blots once again with an Erk1 antibody (one of three representative examples is shown).” left out

[8] = system: p27Kip1 associated with cyclin E; assay: Immunocoprecipitation with anti-cyclin E antibody, Western blot of p27Kip1; type: cell-based, rat; conditions: 5 L cells, immunocoprecipitation analysis, FIG. 2D
Experimental: as §2
as §1, with “4).” for “4). The levels of p27Kip1 protein (C) were determined by Western blot in whole-cell extracts prepared from TCDD-treated cultures of AhR-expressing 5 L wild-type cells, their AhR-deficient BP8AhR-derivatives and BP8 cells which were expressing AhR ectopically (BP8AhR+) (Weiss, loc. cit.).”

C[C@@H]1C[C@@H]([C@H](O)CC2CC(=O)NC(=O)C2)C(=O)[C@@H](C)C1 [cycloheximide]
effect on TCDD induction of Kip1 mRNA (Kip1 mRNA; 30-minute pretreatment, 20 μg/ml, then 4-hour TCDD): had no effect

Clc1cc2c(cc1Cl)Oc1cc(Cl)c(Cl)cc1O2 [TCDD]
p18-Ink and p21-Cip1 levels (p18-Ink and p21-Cip1): not noticeably altered
relative number of cells in S/G2 (5 L cells [1]; GFP with empty expression vector, transfected and non-transfected cells, 1 nM, 18 h): reduced
TCDD effect on cell cycle distribution (5 L cells [1]; efficiently transfected subpopulation expressing Kip1 antisense RNA with GFP, 1 nM): interrupted
observed effects on the cell cycle (5 L cells [1]; electroporated cells): 1.5-2 fold
progress of the cell cycle (5 L cells [1]; non-transfected subpopulation of the Kip1 antisense culture, 1 nM): retarded
level of p27Kip1 by Western blot (p27Kip1 [2]; 5 L wild-type cells, exposure from 4 to 72 hours, FIG. 2C): raised in every case
upregulation of p27Kip1 (p27Kip1 [2]; AhR-poor subclone of 5 L cells (BP8-AhR−)): not possible to observe dioxin-dependent upregulation
induction of p27Kip1 (p27Kip1 [2]; BP8 subclone with ectopic expression of the AhR (BP8-AhR+)): induction was restored
levels of cyclins D2 and D3 [3]: even raised
levels of cyclins D and E and associated cyclin-dependent kinases (cdks 2 and 4) [3]: not reduced
incorporation of 3H-thymidine into the thymocyte DNA (thymocytes; 2 days of FTOC, 1 nM): 75±7%
% in G2/S (thymocytes; CD4+/CD8+ thymocytes): 35 ± 10%
% in G2/S (thymocytes; CD4+/CD8− thymocytes): 24 ± 4%
% in G2/S (thymocytes; CD4−/CD8+ thymocytes): 32 ± 6%
% in G2/S (thymocytes; CD4−/CD8− thymocytes): 18 ± 2%
number of cells in the S and G2 phases of the cell cycle (thymocytes; total thymocyte population, 2 days of FTOC, 1 nM): 24±1%
observed effects on the cell cycle (5 L cells [4]): 3-4 fold
cyclin E-associated histone H1 kinase activity [5]: substantially reduced
induction of Kip1 mRNA (Kip1 mRNA; 5 L cells, 4-hour exposure, FIG. 2E): fourfold
breakdown of Kip1 mRNA (Kip1 mRNA; following interruption of transcription by actinomycin D): did not affect
progress of the cell cycle (phosphorylated versus hypophosphorylated Rb protein) (5 L cells [6]): transcription-dependent retardation
induction of Kip1 protein in thymocytes (p27Kip1 [7]): 3 fold
quantities of p27Kip1 associated with cyclin E [8]: increased quantities
